Data on three molecules can be found in article PMC12297016 (Iranian Journal of Pharmaceutical Research : IJPR, 2025).

Assay [1] concerns the target T1, recombinant human matrix metalloproteinase 9 (rhMMP-9) (Homo sapiens, UniProt P14780).
T1 construct: amino acid residues from 107 to 707, consisted of the catalytic domain (Phe107 to Gly223); His-tag; made in house; host or cells: Escherichia coli BL21 (DE3), vector pET21a(+)
Description: Protease activity assay of rhMMP-9 with casein as substrate. It counts as biochemical. The settings on record: for α: KI = α × Ki; for type of inhibition: Lineweaver-Burk and secondary plots, mixed type; for IC50: casein degradation assay, inhibitor 0 to 70 µM, read-out: IC50 of rhMMP-9 activity inhibition; for Ki: dissociation constant of EI complex, from secondary plot of slope against [I]; for αKi (KI): dissociation constant of ESI complex, from Dixon plot of 1/V'max against [I]; for K m: casein substrate. As to the method:
To determine the hydrolyzing activity of rhMMP-9, casein was used as a substrate. A casein solution (1% w/v) was added to the extracted and purified rhMMP-9, and the final volume was adjusted to 1 mL with Tris buffer (pH 7). The expression product and substrate mix were incubated with shaking for 5 minutes at 37°C. To stop the process, 1 mL of cold trichloroacetic acid (TCA, 15%) was added to the mixture. This mixture was then kept at -20°C for 10 minutes and centrifuged twice (8000 g, 5 min, 4°C) to separate soluble peptides. The pellet was discarded, and the absorbance of the supernatant soluble peptides fraction was evaluated at 280 nm. All spectrophotometric measurements were accompanied by a blank assay in the absence of the enzyme. Enzyme activity was calculated from the tyrosine standard curve and expressed as mean ± SD in units of [µmol/min] after at least five repeats ([22]). SPSS software version 9 was used for data interpretation, and all graphs were drawn and kinetic parameters calculated using an Excel spreadsheet software program. The Quest Graph IC50 Calculator was used for the calculation of IC50 values.
A cell-free casein degradation-based assay was employed to evaluate the influence of ellagitannins on the catalytic activity of the rhMMP-9 enzyme. By adding various fixed quantities of casein as a substrate and a fixed concentration of enzyme, the enzyme activity was determined in the presence of different concentrations of ellagitannins (ranging from 0 to 70 µM). The rate of tyrosine production by the protease activity of rhMMP-9 was assessed based on a calibration curve over 1 minute, which refers to enzyme activity.
To examine the effects of inhibitors on the kinetic parameters of rhMMP-9, Michaelis-Menten saturation curves and Lineweaver-Burk plots were drawn in the presence of various concentrations of inhibitors (5 - 30 µM) and substrate range (0 - 0.3%) (Figure 4).
The first of these is a Dixon plot of 1/Vʹmax against the concentration of inhibitor [I], from which the value of -αKi as the x-intercept can be determined (Figure 5A - C). The second is the slope of the primary plot (from the Lineweaver-Burk plot) against the concentration of inhibitor [I], from which the value of -Ki as the x-intercept can be determined (Figure 5D - F).

The target in assay [2] is T1, recombinant human matrix metalloproteinase 9 (rhMMP-9). Description: Surface plasmon resonance (SPR) binding to immobilized rhMMP-9. As to conditions: 37°C, 5-40 µM. An excerpt: A dual-flow channel MP-SPR Navi 210A analyzer (BioNavis Ltd., Tampere-region, Finland) was used to evaluate SPR kinetic parameters on gold chips (BioNavis Ltd., Finland). A solution of both EDC/NHS ((N-(3-dimethylaminopropyl)-N′-ethylcarbodiimide hydrochloride) (0.2 M) and NHS (N-hydroxysuccinimide) (0.05 M)) was employed for the activation of […] carboxylic groups. Immobilization of the rMMP-9 enzyme on the CMD Au chip was accomplished by a standard amine coupling protocol. For blocking unreacted sites, ethanolamine–HCl (1 M, pH 8.5) reagent was used.
The SPR technique, a current method for examining the interaction between ligand and protein, was employed in this research. As presented in Figure 6, association (Ka) and dissociation (Kd) constants were evaluated through sensorgrams (RU vs. time). Five […] concentrations for each of the three natural compounds were used (5, 10, 20, 30, 40 µM).
The equilibrium constant KD, which evaluates the affinity of a ligand to a protein, was determined using the formula: =Kd/Ka . A lower value of the KD constant indicates a higher interaction affinity between the protein and ligand.

T1 sequence (P14780 107-707): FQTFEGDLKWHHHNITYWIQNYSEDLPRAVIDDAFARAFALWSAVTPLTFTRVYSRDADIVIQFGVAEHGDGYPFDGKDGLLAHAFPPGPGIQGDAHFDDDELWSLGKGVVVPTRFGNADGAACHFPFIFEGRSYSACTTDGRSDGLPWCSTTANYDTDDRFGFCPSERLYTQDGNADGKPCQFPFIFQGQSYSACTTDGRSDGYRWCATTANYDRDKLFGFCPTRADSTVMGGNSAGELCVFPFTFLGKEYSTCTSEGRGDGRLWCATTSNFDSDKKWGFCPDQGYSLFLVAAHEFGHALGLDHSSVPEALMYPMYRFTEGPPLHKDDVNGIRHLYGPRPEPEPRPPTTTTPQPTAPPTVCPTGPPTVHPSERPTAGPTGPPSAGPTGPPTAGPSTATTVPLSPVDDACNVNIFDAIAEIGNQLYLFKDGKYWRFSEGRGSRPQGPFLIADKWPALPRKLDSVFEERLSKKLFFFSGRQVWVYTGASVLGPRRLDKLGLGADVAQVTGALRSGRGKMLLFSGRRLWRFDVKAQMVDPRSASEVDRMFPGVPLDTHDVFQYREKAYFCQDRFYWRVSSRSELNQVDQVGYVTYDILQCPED

Usually IC50 stands for the concentration at which inhibition is half-maximal. By Ki is commonly meant the equilibrium dissociation constant of an inhibitor or competing ligand from its target. A word on the Kd: it is the equilibrium constant for the complex coming apart. Take `O=c1oc2c(O)c(O)cc3c(=O)oc4c(O)c(O)cc1c4c23` [EA, ellagic acid]: in assay [1], the α is given as 1.11, the type of inhibition result is given as “competitive-non-competitive pattern”, the IC50 was found to be 17.1 µM and the Ki worked out at 24.9 µM. The “αKi (KI)” value in assay [1] (in µM) is given as 27.57. In assay [1] (high concentration (60 µM)), the “reduction of catalytic activity” value was 90%. Also, in assay [1] (inhibitor 15 µM), the V max stood at 0.093 ± 0.005 µmol/min and the K m was 0.03 ± 0.002%. In addition, in assay [1] (inhibitor 30 µM), the V max came to 0.078 ± 0.004 µmol/min and the K m is 0.03 ± 0.002%. Moreover, the Kd in assay [2] was determined as 113 µM.
As to `O=c1oc2cc(O)ccc2c2ccc(O)cc12` [Uro A, urolithin A], in assay [1], the α came to 0.25, the type of inhibition result is listed as “non-competitive-uncompetitive pattern”, the concentration for half-maximal inhibition (IC50) worked out at 33.3 µM and the Ki was found to be 12 µM. In assay [1], the αKi (KI) stood at 3.03 µM and the “extent of inhibition of catalytic activity at high concentrations” value is on record as “entirely inhibit”. Further, in assay [1] (inhibitor 5 µM), the V max came to 0.120 ± 0.006 µmol/min and the K m worked out at 0.085 ± 0.004%. In assay [1] (inhibitor 15 µM), the V max worked out at 0.04 ± 0.002 µmol/min and the K m is 0.1 ± 0.005%. The Kd in assay [2] worked out at 67 µM.
For the molecule `O=c1oc2cc(O)ccc2c2ccccc12` [Uro B, urolithin B], in assay [1], the α was determined as 0.13, the type of inhibition result is on record as “non-competitive-uncompetitive pattern”, the IC50 was 13.2 µM and the inhibition constant (Ki) worked out at 22.5 µM. Further, in assay [1], the αKi (KI) is 3.02 µM and the “extent of inhibition of catalytic activity at high concentrations” value is on record as “entirely inhibit”. For the same molecule, in assay [1] (inhibitor 5 µM), the V max worked out at 0.079 ± 0.004 µmol/min and the K m is 0.030 ± 0.002%. In assay [1] (inhibitor 15 µM), the V max is listed as 0.033 ± 0.002 µmol/min and the K m came to 0.020 ± 0.001%. Moreover, the Kd in assay [2] is 43 µM.
